Source: patent publication US20260159512A1, “BCAT2 INHIBITORS” (AGIOS PHARMACEUTICALS, INC., priority 2021, published 2026)

Key:
hBCAT1 = biological target: T1, hBCAT1 (Homo sapiens, UniProt P54687); test: BCAT1 in vitro enzyme inhibition assay (resazurin/diaphorase-coupled fluorescence); type: biochemical; settings: average where tested multiple times
T1 sequence (P54687 1-386): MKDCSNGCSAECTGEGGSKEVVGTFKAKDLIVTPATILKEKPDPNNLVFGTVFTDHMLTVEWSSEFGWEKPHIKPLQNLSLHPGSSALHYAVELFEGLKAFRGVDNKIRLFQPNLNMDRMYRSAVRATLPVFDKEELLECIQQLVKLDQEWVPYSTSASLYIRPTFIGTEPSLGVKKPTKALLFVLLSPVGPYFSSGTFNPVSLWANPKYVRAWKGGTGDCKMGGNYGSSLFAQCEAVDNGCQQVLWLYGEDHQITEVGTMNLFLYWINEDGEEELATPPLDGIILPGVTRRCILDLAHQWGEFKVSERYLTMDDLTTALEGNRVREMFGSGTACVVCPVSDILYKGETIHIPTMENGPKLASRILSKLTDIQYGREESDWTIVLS
Description: BCAT1 In Vitro Enzyme Inhibition Assay
Meanwhile the Substrate Mix was prepared.
Test Compound Preparation:
Test compounds were prepared at 50× final concentration in DMSO, 1 to 3 dilutions were made for 10 points. The compounds were added to the assay as a 1 to 50 dilution (1 μL in 50 μL) to yield a top assay final concentration of 100 μM, decreasing 3-fold for 10 points. […] All tests were performed in technical duplicate.
Where a compound was tested multiple times, the average value of the tests is reported.

BCAT2 = biological target: T2, BCAT2 (Homo sapiens, UniProt O15382); test: BCAT2 in vitro enzyme inhibition assay (resazurin/diaphorase-coupled fluorescence); type: biochemical; settings: average where tested multiple times
T2 sequence (O15382 28-392): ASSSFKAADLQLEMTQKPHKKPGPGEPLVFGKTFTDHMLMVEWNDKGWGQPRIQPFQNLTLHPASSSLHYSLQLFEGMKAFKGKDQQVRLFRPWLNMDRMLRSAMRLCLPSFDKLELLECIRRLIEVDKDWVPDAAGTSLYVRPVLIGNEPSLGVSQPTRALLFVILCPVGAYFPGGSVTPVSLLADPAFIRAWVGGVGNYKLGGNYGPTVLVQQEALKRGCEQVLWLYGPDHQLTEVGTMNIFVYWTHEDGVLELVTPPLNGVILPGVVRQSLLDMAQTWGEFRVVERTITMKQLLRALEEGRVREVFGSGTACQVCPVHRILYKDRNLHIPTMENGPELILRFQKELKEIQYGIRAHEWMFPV
Summary of the method: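 Coupled fluorescence readout: glutamate formed from L-leucine/α-ketoglutarate transamination drives GDH/NAD/diaphorase reduction of resazurin (Ex 540/Em 590). Human BCAT2 was first exposed 1 h at room temperature to compound, top final 100 μM in 3-fold, 10-point series; substrate reaction ran 1 h before SDS quench, in technical duplicate with DMSO max and enzyme-free min controls.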

IC50 (hBCAT1)	IC50 (BCAT2)	Compound
> 5000 nM	500 to 1000 nM	O=C(N[C@H]1CCC[C@@H](n2c(-n3cccn3)nc3cnc(-n4ccnn4)cc32)C1)c1ncc(C(F)F)s1 [Example 57, N-((1S,3R)-3-(2-(1H-pyrazol-1-yl)-6-(1H-1,2,3-triazol-1-yl)-1H-imidazo[4,5-c]pyridin-1-yl)cyclohexyl)-5-(difluoromethyl)thiazole-2-carboxamide]
1000 to 5000 nM	≤ 100 nM	C#Cc1ccc(C(=O)NC2CC(n3c(-c4ccccc4F)nc4cc(C(=O)NC)c(OC)cc43)CN(C)C2)s1 (stereo not shown) [Example 292, 1-(5-(5-ethynylthiophene-2-carboxamido)-1-methylpiperidin-3-yl)-2-(2-fluorophenyl)-6-methoxy-N-methyl-1H-benzo[d]imidazole-5-carboxamide]
> 5000 nM	500 to 1000 nM	O=C(NC1COCC(n2c(-c3ncccc3F)nc3cnc(-n4ccnn4)cc32)C1)c1ncc(C(F)F)s1 (single isomer, unassigned) [Example 144, 5-(difluoromethyl)-N-(5-(2-(3-fluoropyridin-2-yl)-6-(1H-1,2,3-triazol-1-yl)-1H-imidazo[4,5-c]pyridin-1-yl)tetrahydro-2H-pyran-3-yl)thiazole-2-carboxamide]
> 5000 nM	≤ 100 nM	O=C(N[C@H]1CCC[C@@H](n2c(-c3ccccn3)nc3cc(-n4nccn4)ncc32)C1)c1ccc(Br)s1 [Example 151, 5-bromo-N-((1S,3R)-3-(2-(pyridin-2-yl)-6-(2H-1,2,3-triazol-2-yl)-3H-imidazo[4,5-c]pyridin-3-yl)cyclohexyl)thiophene-2-carboxamide]
1000 to 5000 nM	100 to 500 nM	Cc1nsc(-c2cc3c(cn2)nc(CC(C)C)n3[C@@H]2CCC[C@H](NC(=O)c3ncc(Cl)s3)C2)n1 [Example 336, 5-chloro-N-((1S,3R)-3-(2-isobutyl-6-(3-methyl-1,2,4-thiadiazol-5-yl)-1H-imidazo[4,5-c]pyridin-1-yl)cyclohexyl)thiazole-2-carboxamide]
> 5000 nM	100 to 500 nM	C#Cc1ccc(C(=O)N[C@H]2CCC[C@@H](n3c(-c4ccccn4)nc4cc(-c5cnco5)ncc43)C2)s1 [Example 153, 5-ethynyl-N-((1S,3R)-3-(6-(oxazol-5-yl)-2-(pyridin-2-yl)-3H-imidazo[4,5-c]pyridin-3-yl)cyclohexyl)thiophene-2-carboxamide]
> 5000 nM	100 to 500 nM	O=C(N[C@H]1CCC[C@@H](n2c(-c3ccccc3F)nc3cnc(-c4c(F)cccc4F)cc32)C1)c1ncc(Cl)s1 [Example 207, 5-chloro-N-((1S,3R)-3-(6-(2,6-difluorophenyl)-2-(2-fluorophenyl)-1H-imidazo[4,5-c]pyridin-1-yl)cyclohexyl)thiazole-2-carboxamide]
< 500 nM	≤ 100 nM	O=C(N[C@H]1CCC[C@@H](n2c(N3CCCCC3)nc3cnc(-c4nc[nH]n4)cc32)C1)c1ccc(Cl)s1 [Example 372, 5-chloro-N-((1S,3R)-3-(2-(piperidin-1-yl)-6-(1H-1,2,4-triazol-3-yl)-1H-imidazo[4,5-c]pyridin-1-yl)cyclohexyl)thiophene-2-carboxamide]
1000 to 5000 nM	≤ 100 nM	CC(=O)N1CC(NC(=O)c2ccc(Br)s2)CC(n2c(-c3ccccn3)nc3cc(-c4ncon4)ccc32)C1 (stereo not shown) [Example 284, N-(5-(5-(1,2,4-oxadiazol-3-yl)-2-(pyridin-2-yl)-1H-benzo[d]imidazol-1-yl)-1-acetylpiperidin-3-yl)-5-bromothiophene-2-carboxamide]
> 5000 nM	> 1000 nM	O=C(N[C@H]1CCC[C@@H](n2c(-c3ncccc3F)nc3cnc(N4CCC4)cc32)C1)c1ccc(Br)s1 [Example 300]
< 500 nM	≤ 100 nM	CC(C)Cc1nc2cnc(-c3ncccn3)cc2n1[C@H]1C[C@H](O)C[C@@H](NC(=O)c2ncc(Cl)s2)C1 (stereo in doubt) [Example 398, 5-chloro-N-((1S,3R,5R)-3-hydroxy-5-(2-isobutyl-6-(pyrimidin-2-yl)-1H-imidazo[4,5-c]pyridin-1-yl)cyclohexyl)thiazole-2-carboxamide]
